Measured values: patent publication US10952999B2, “Inhibitor of cyclin-dependent kinase CDK9” (GENFLEET THERAPEUTICS (SHANGHAI) INC., priority 2017, dated 2021)

Columns and labels:
Assay in all cases: Cancer cell growth, Cell Titer-Glo cell viability assay, 72 hours
Type in all cases: cell-based
[1] = tested on: hamster lung cell CHL; details: CHL, 72 hours
Excerpt: (§1) In the examples, we used acute myelocytic leukemia (AML) OCI-AML-3, acute promyelocytic leukemia cell line NB-4, MDS-RAEB (myelodysplastic syndrome-excess blasts type) cell line SKM-1, human leukemia cell Nomo-1, acute myeloid leukemia cell line MOLM14, acute myeloid leukemia cell line MOLM13, acute myeloid leukemia cell line MV4-11, acute myeloid leukemia cell line HL-60, acute myeloid leukemia cell line OCI-AML-2, histiocytic lymphoma U-937, acute B cell leukemia cell line MEC-1, acute B cell leukemia cell line MEC-2, acute megakaryoblastic leukemia CMK, hamster lung cell CHL, hamster ovary cell CHO, human non-small cell lung cancer cell H1975, human non-small cell lung cancer cell H358, human small cell lung cancer cell H209, human lung adenocarcinoma cell H1395, human non-small cell lung cancer cell PC-9, human lung cancer cell H3122, human non-small cell lung cancer cell H2122, human non-small cell lung cancer cell H1915, human lung adenocarcinoma cell H1355, human non-small cell lung cancer cell HCC827, human breast cancer cell MDA-MB-231, human breast cancer cell MDA-MB-468, human breast cancer cell MCF-7, human breast cancer cell T47D, human breast cancer cell SK-Br-3, the above cells were purchased from ATCC.
(§2) Cell Titer-Glo® (Promega, USA) chemical self-luminescence cell viability assay kit was used to detect the number of viable cells by quantitatively measuring ATP in living cells, according to which to calculate GI50 and IC50.

[2] = tested on: acute promyelocytic leukemia cell line NB-4; details: NB4, 72 hours
Excerpt: as §1, §2

[3] = tested on: acute myeloid leukemia cell line MOLM13; details: MOLM-13, 72 hours
Excerpt: as §1, §2

[4] = tested on: acute myeloid leukemia cell line OCI-AML-2; details: OCI-AML2, 72 hours
Excerpt: as §1, §2

[5] = tested on: MDS-RAEB (myelodysplastic syndrome-excess blasts type) cell line SKM-1; details: SKM-1, 72 hours
Excerpt: as §1, §2

[6] = tested on: hamster ovary cell CHO; details: CHO, 72 hours
Excerpt: as §1, §2

[7] = tested on: acute myelocytic leukemia (AML) OCI-AML-3; details: OCI-AML3, 72 hours
Excerpt: as §1, §2

[8] = tested on: histiocytic lymphoma U-937; details: U-937, 72 hours
Excerpt: as §1, §2

[9] = tested on: human leukemia cell Nomo-1; details: Nomo-1, 72 hours
Excerpt: as §1, §2

[10] = tested on: acute myeloid leukemia cell line HL-60; details: HL-60, 72 hours
Excerpt: as §1, §2

[11] = tested on: acute B cell leukemia cell line MEC-2; details: MEC-2, 72 hours
Excerpt: as §1, §2

[12] = tested on: acute megakaryoblastic leukemia CMK
Excerpt: as §1, §2

[13] = tested on: acute B cell leukemia cell line MEC-1; details: MEC-1, 72 hours
Excerpt: as §1, §2

[14] = tested on: acute myeloid leukemia cell line MOLM14; details: MOLM-14, 72 hours
Excerpt: as §1, §2

[15] = tested on: acute myeloid leukemia cell line MV4-11; details: MV4-11, 72 hours
Excerpt: as §1, §2

Row | Compound | GI50 [1] [µM] | GI50 [2] [µM] | GI50 ([3]; Homo sapiens) [µM] | GI50 ([4]; Homo sapiens) [µM] | GI50 ([5]; Homo sapiens) [µM] | GI50 ([7]; Homo sapiens, OCI-AML-3) [µM] | GI50 ([8]; Homo sapiens) [µM] | GI50 ([9]; Homo sapiens) [µM] | GI50 ([10]; Homo sapiens) [µM] | GI50 ([11]; MEC2) [µM] | GI50 [12] [µM] | GI50 ([13]; Homo sapiens, MEC1) [µM] | GI50 ([14]; Homo sapiens) [µM] | GI50 ([15]; Homo sapiens) [µM] | GI50 [6] [µM] | also measured
1 | COC[C@H](C)N[C@H]1CC[C@H](Nc2cc(-c3csc(NCC4CCOCC4)n3)c(Cl)cn2)CC1 [Compound 5, (1S,4r)-N^1-(5-chloro-4-(2-(((tetrahydro-2H-pyran-4-yl)methyl)amino)thiazol-4-yl)pyridin-2-yl)-N^4-((S)-1-methoxypropan-2-yl)cyclohexane-1,4-diamine] | 3.6 | 0.46 | 0.64 | 0.47 | 0.35 | 0.82 | 0.43 | 1 | 0.39 | 0.77 | 1.5 | 1.3 | 0.49 | 0.44 | 1.2 | 
2 | O=C(Nc1cc(-c2csc(NCC3CCOCC3)n2)c(Cl)cn1)c1ccc(F)cc1 [Compound 8, N-(5-chloro-4-(2-(((tetrahydro-2H-pyran-4-yl)methyl)amino)thiazol-4-yl)pyridin-2-yl)-4-fluorobenzamide] | 0.93 | 0.22 | 0.2 | 2.9 | 0.15 | 0.72 | 1.4 | 1 | 0.31 | 0.83 | 0.15 | 3.6 | 0.53 | 0.55 | 1.6 | 
3 | COCCN[C@H]1CC[C@H](Nc2cc(-c3csc(NCc4ccccc4)n3)c(Cl)cn2)CC1 [Compound 11, (1r,4r)-N^1-(4-(2-(benzylamino)thiazol-4-yl)-5-chloropyridin-2-yl)-N^4-(2-methoxyethyl)cyclohexane-1,4-diamine] | 1 | 0.27 | 0.28 | 0.33 | 0.17 | 0.22 | 0.22 | 0.96 | 0.073 | 0.32 | 0.47 | 0.47 | 0.16 | 0.33 | 0.37 | 
4 | COCCN[C@H]1CC[C@H](Nc2cc(-c3csc(NCc4ccc(F)cc4)n3)c(Cl)cn2)CC1 [Compound 12, (1r,4r)-N^1-(5-chloro-4-(2-((4-fluorobenzyl)amino)thiazol-4-yl)pyridin-2-yl)-N^4-(2-methoxyethyl)cyclohexane-1,4-diamine] | 1.1 | 0.41 | 0.29 | 0.41 | 0.2 | 0.39 | 0.39 | 0.92 | 0.19 | 0.48 | 0.72 | 0.45 | 0.31 | 0.88 | 0.47 | 
5 | COCCN[C@H]1CC[C@H](Nc2cc(-c3csc(NCC4CC4)n3)c(Cl)cn2)CC1 [Compound 13, (1r,4r)-N^1-(5-chloro-4-(2-((cyclopropylmethyl)amino)thiazol-4-yl)pyridin-2-yl)-N^4-(2-methoxyethyl)cyclohexane-1,4-diamine] | 1.4 | 0.34 | 0.44 | 0.6 | 0.26 | 0.42 | 0.32 | 0.87 | 0.32 | 0.66 | 1.1 | 0.89 | 0.33 | 0.74 | 0.77 | 

Further lines, with some results ahead:

Row | GI50 [1] [µM] | GI50 [2] [µM] | GI50 ([3]; Homo sapiens) [µM] | GI50 ([4]; Homo sapiens) [µM] | GI50 ([5]; Homo sapiens) [µM] | GI50 ([7]; Homo sapiens, OCI-AML-3) [µM] | GI50 ([8]; Homo sapiens) [µM] | GI50 ([9]; Homo sapiens) [µM] | GI50 ([10]; Homo sapiens) [µM] | GI50 ([11]; MEC2) [µM] | GI50 [12] [µM] | GI50 ([13]; Homo sapiens, MEC1) [µM] | GI50 ([14]; Homo sapiens) [µM] | GI50 ([15]; Homo sapiens) [µM] | Compound | GI50 [6] [µM] | also measured
6 | 3.5 | 0.056 | 0.15 | 9.1 | 0.085 | 0.14 | 0.12 | 0.59 | 0.55 | 0.14 | 0.37 | 0.27 | 0.14 | 0.14 | N[C@H]1CC[C@H](Nc2cc(-c3csc(NCC4CCOCC4)n3)c(Cl)cn2)CC1 [Compound 2, (1r,4r)-N^1-(5-chloro-4-(2-(((tetrahydro-2H-pyran-4-yl)methyl)amino)thiazol-4-yl)pyridin-2-yl)cyclohexane-1,4-diamine] | 2.8 | 
7 | 1.1 | 0.11 | 0.13 | 0.12 | 0.097 | 0.15 | 0.11 | 0.29 | 0.065 | 0.13 | 0.35 | 0.31 | 0.11 | 0.14 | COC[C@@H](C)N[C@H]1CC[C@H](Nc2cc(-c3csc(NCC4CCOCC4)n3)c(Cl)cn2)CC1 [Compound 6, (1R,4r)-N^1-(5-chloro-4-(2-(((tetrahydro-2H-pyran-4-yl)methyl)amino)thiazol-4-yl)pyridin-2-yl)-N^4-((R)-1-methoxypropan-2-yl)cyclohexane-1,4-diamine] | 0.4 | 
8 | 1.9 | 0.7 | 1 | 0.65 | 0.75 | 1.1 | 0.85 | 1.3 | 0.42 | 1.1 | 1.8 | 1.4 | 0.68 | 0.53 | CNc1nc(-c2cc(N[C@H]3CC[C@H](NCCOC)CC3)ncc2Cl)cs1 [Compound 9, (1r,4r)-N^1-(5-chloro-4-(2-(methylamino)thiazol-4-yl)pyridin-2-yl)-N^4-(2-methoxyethyl)cyclohexane-1,4-diamine] | 1.2 | 
9 | 8 | 0.49 | 0.82 | 0.6 | 0.33 | 0.56 | 0.34 | 0.6 | 0.41 | 0.66 | 0.98 | 0.85 | 0.33 | 1.1 | COCCN[C@H]1CC[C@H](Nc2cc(-c3csc(NCC4CCCCC4)n3)c(Cl)cn2)CC1 [Compound 10, (1r,4r)-N^1-(5-chloro-4-(2-((cyclohexylmethyl)amino)thiazol-4-yl)pyridin-2-yl)-N^4-(2-methoxyethyl)cyclohexane-1,4-diamine] | 0.78 | 
10 | 3.3 | 0.58 | 0.57 | 2.1 | 0.5 | 0.63 | 0.6 | 1.5 | 0.45 | 0.97 | 1.4 | 1.4 | 0.62 | 0.63 | COCCN[C@H]1CC[C@H](Nc2cc(-c3csc(OCC4CCOCC4)n3)c(Cl)cn2)CC1 [Compound 16, (1r,4r)-N^1-(5-chloro-4-(2-((tetrahydro-2H-pyran-4-yl)methoxy)thiazol-4-yl)pyridin-2-yl)-N^4-(2-methoxyethyl)cyclohexane-1,4-diamine] | 1.3 | 
11 | 5.6 | 0.35 |  |  |  |  |  |  |  |  | 1.1 |  |  |  | COCCN[C@H]1CC[C@H](Nc2cc(-c3csc(SCC4CCOCC4)n3)c(Cl)cn2)CC1 [Compound 17, (1r, 4r)-N^1-(5-chloro-4-(2-(((tetrahydro-2H-pyran-4-yl)methyl)mercapto)thiazol-4-yl)pyridin-2-yl)-N^4-(2-methoxyethyl)cyclohexane-1,4-diamine] | 0.61 | GI50 [3]: 0.34 µM; GI50 [4]: 0.8 µM; GI50 [5]: 0.33 µM; GI50 [7]: 0.98 µM; GI50 [8]: 0.3 µM; GI50 [9]: 0.93 µM; GI50 [10]: 0.16 µM; GI50 [11]: 0.7 µM; GI50 [13]: 0.8 µM; GI50 [14]: 0.36 µM; GI50 [15]: 1.1 µM
